{"source": "patent US20180161338A1", "about": "“RETOSIBAN FOR THE TREATMENT OF PRE-TERM LABOUR” (priority 2014, published 2018)", "key": {"[1]": {"system": "pre-term labour in twin pregnancies", "conditions": "isolated reports, not placebo controlled; cited from earlier work"}, "Human myometrial strips": {"system": "Human myometrial strips", "experiment": "Maximal contractile responses to KCl and oxytocin of myometrial strips cultured under low or high stretch", "format": "cell-based", "conditions": "for median fold change with retosiban, maximal response to KCl / median fold change with retosiban, maximal response to oxytocin: retosiban versus vehicle", "procedure": "Human myometrial strips (obtained from non-labouring patients undergoing routine elective caesarean section at term) were cultured in medium (phenol red free DMEM supplemented with 10% charcoal stripped foetal calf serum, 2 mM L-glutamine and antibiotics) in an incubator (37° C., humidified 5% CO2) under conditions of low stretch (0.6 g mass) or high stretch (2.4 g mass). Half of the strips in both the low and high stretch groups were incubated with […] retosiban (diluted in DMSO). The remaining strips (paired samples from the same patient) were incubated DMSO.\nAfter 20-24 hours incubation, myometrial contractility of the strips was studied as described previously (J Physiol 2012; 590(Pt9): 2081-2093). Briefly, tension was initially set at 2 g for all strips. Strips were washed with fresh Krebs after 15 and 30 min and the tension reset to 2 g. After a further hour of washes (every 15 min), the issue was treated with 50 mM KCl (50 mM, 5-7 min). This was washed, the tissue allowed to recover and then a cumulative concentration response curve to oxytocin (up to 100 nM) was obtained. Maximal responses to KCl and oxytocin were normalized to strip wet weight. The mean normalized responses of duplicate strips were calculated for the four different groups (low stretch with retosiban, low stretch with vehicle, high stretch with retosiban, high stretch with vehicle). Effects were expressed as fold change i.e. the ratio of normalized responses in the experimental and control conditions from different strips obtained from the same person. pEC50 values were calculated using analysis of the area under the curve for each concentration of oxytocin.\nSince the data were expressed as fold changes, all ratios were log transformed and normal distribution following log transformation was assessed using the Sharpiro-Wilk test. The null hypothesis was that there was no change in the mean normalized responses with a given intervention. […] Continuous associations were assessed using linear regression of log transformed fold changes. For the analysis of pEC50 Student's paired t-test was used."}, "[2]": {"system": "pre-term labour in singleton pregnancies", "conditions": "cited from earlier work"}, "[3]": {"system": "women pregnant with twins", "conditions": "prophylactic administration; cited from earlier work"}, "[4]": {"system": "asymptomatic women with a short cervix pregnant with a single foetus", "conditions": "daily administration; cited from earlier work"}}, "note": "Bridge positions count the residues as written; N and C are the ends. Square brackets hold non-standard residues; d marks the D form. Peptide text beside a SMILES is read from it. Orn = NCCC[C@H](N)C(=O)O; Mpa = O=C(O)CCS", "data": [{"smiles": "CCOc1ccc(C[C@H]2NC(=O)CCSSC[C@@H](C(=O)N3CCC[C@H]3C(=O)N[C@@H](CCCN)C(=O)NCC(N)=O)NC(=O)[C@H](CC(N)=O)NC(=O)[C@H]([C@@H](C)O)NC(=O)[C@H]([C@@H](C)CC)NC2=O)cc1", "note": "[atosiban] ([Mpa][dY](Et)ITNCP[Orn]G-NH2; disulfide 1-6)", "values": [{"measurement": "treatment of pre-term labour in twin pregnancies", "setting": "[1]", "result": "used successfully"}]}, {"smiles": "CC[C@H](C)[C@@H]1C(=O)N[C@H](C2Cc3ccccc3C2)C(=O)N1[C@@H](C(=O)N1CCOCC1)c1coc(C)n1", "note": "[retosiban, (3R,6R)-3-(2,3-dihydro-1H-inden-2-yl)-1-[(1R)-1-(2-methyl-1,3-oxazol-4-yl)-2-(morpholin-4-yl}-2-oxoethyl]-6-[(1S)-1-methylpropyl]-2,5-piperazinedione]", "values": [{"measurement": "median fold change with retosiban, maximal response to KCl", "setting": "Human myometrial strips; high stretch (2.4 g), n=12", "result": 0.74}, {"measurement": "median fold change with retosiban, maximal response to oxytocin", "setting": "Human myometrial strips; high stretch (2.4 g), n=12", "result": 0.71}, {"measurement": "median fold change with retosiban, maximal response to KCl", "setting": "Human myometrial strips; low stretch (0.6 g), n=12", "result": 1.00}, {"measurement": "median fold change with retosiban, maximal response to oxytocin", "setting": "Human myometrial strips; low stretch (0.6 g), n=12", "result": 0.97}, {"measurement": "relationship between the effect of stretch and the effect of retosiban on responses to KCl and oxytocin", "setting": "Human myometrial strips; per patient, FIG. 3", "result": "the greater was the reduction in response induced by retosiban"}, {"measurement": "fold change with stretch (high stretch compared with low stretch), maximal response to KCl", "setting": "Human myometrial strips; strips incubated with 1 mM retosiban 20-24 h, retosiban removed, 50 mM KCl, n=12", "result": 1.14}, {"measurement": "fold change with stretch (high stretch compared with low stretch), maximal response to oxytocin", "setting": "Human myometrial strips; strips incubated with 1 mM retosiban 20-24 h, retosiban removed, oxytocin up to 100 nM, n=12", "result": 1.14}, {"measurement": "increase in days to delivery relative to placebo (mean)", "setting": "[2]; phase II clinical study", "result": 8.2, "unit": "days"}, {"measurement": "response rate or percentage of women achieving uterine quiescence", "setting": "[2]; ≤4 contractions/h with no change in cervical dilation >1 cm at 5-6 h, depending upon route of administration/dose", "result": "50-57%"}]}, {"smiles": "CCCCCC(=O)O[C@]1(C(C)=O)CC[C@H]2[C@@H]3CCC4=CC(=O)CC[C@]4(C)[C@H]3CC[C@@]21C", "note": "[17-α hydroxyprogesterone caproate]", "values": [{"measurement": "reduction in the frequency of pre-term birth", "setting": "[3]", "result": "no reduction"}]}, {"smiles": "CC(=O)[C@H]1CC[C@H]2[C@@H]3CCC4=CC(=O)CC[C@]4(C)[C@H]3CC[C@]12C", "note": "[vaginal progesterone, progesterone]", "values": [{"measurement": "reduction of the frequency of birth before 34 weeks of gestation", "setting": "[4]", "result": "more than 40%"}]}]}
